Results: patent publication US20070238717A1, “Neuroprotection with Beta-Lactam Compounds” (Johns Hopkins University, priority 2003, published 2007)

Tests used:
[1] = test system: EAAT2; experiment: Spinal cord organotypic culture screen for EAAT2 protein expression (slot blot); assay type: cell-based, rat; conditions: for EAAT2 expression: positive controls, after 3 days in culture
From the text: Screening Assay for EAAT2 Protein overexpression. Spinal cord organotypic cultures and astroglial cultures are used to screen for drugs capable of stimulating EAAT2 synthesis and function. Organotypic cultures offer the advantage in that they maintain the normal architecture of neuron-astroglial interactions in vitro and are derived from post natal tissue; thus may better reflect astroglial responses in vivo (rather than embryonic cells). Thus a drug that acts either on an astrocyt—or induces neurons to secrete factors that alert astrocytes—better reflects the “natural” condition of delivering a drug to a whole animal.
Organotypic Spinal Cord. Spinal cord organotypic cultures have been described by us in detail in the past. Rothstein J D et al., N. Engl. J. Med. 1992; 326:1464-1468. Briefly, 300 um sections of rat lumbar spinal cord, from postnatal day 8-10 rat pups, are placed on Millipore Millicell CM semipermeable membranes. Each well contains 5 slices (FIG. 2A). Fifty-100 cultures can be prepared weekly. Each drug (10-100 μM) was added for 3-7 days, along with cell culture medium/serum. Cultures were harvested and 5-50 μg of tissue was applied to slot blot apparatus for detection of EAAT2 by standard Western blotting/chemiluminescence methods described in the past. Kuncl R W et al., Motor neuron diseases. In: Asbury A K et al., editors. Diseases of the Nervous System. 2 ed. Philadelphia: W. B. Saunders, 1992:1179-1208; Rothstein J D et al., Neuron 1994; 13:713-725. All antipeptide antibodies were affinity purified and highly specific for transporter subtypes. By this method, increases greater than 50% of expressed protein can be detected. For each antibody slot blot, the homogenates used are expected to be within the linear range for antibody detection, based on prior standard curves.
Screening Library-Assay Design. The library of compounds for these first studies was the NINDS Custom Collection from Microsource Discovery. The library is composed of 1040 compounds in 96 well plates, that also included positive control for transporter synthesis (dibutyryl cyclic AMP [dbcAMP], GDNF). […] The library is a unique collection of known bioactive compounds that permit the simultaneous evaluation of hundreds of marketed drugs and biochemical standards. Each compound was studied at a final concentration of 10-100 μM. All assays were performed in duplicate. Every blot included control—untreated tissue and a positive control, such as those identified above.
Data Analysis. All blots were analyzed by laser densitometry (BioRad Image Quant) and the duplicate points were averaged. Each blot included a positive control standard (e.g. dbcAMP) and a negative control standard (e.g. serum, DMSO). Data was kept in Excel Spreadsheets, using a numerical/text coding system. All positive drugs (positive defined as at least a 50% increased in protein expression) were re-evaluated.

[2] = intravenous, antibiotic doses, after 0.5 hours; cited from earlier work
[3] = intravenous, pediatric bacterial meningitis, after 3-4 hours; cited from earlier work
[4] = test system: cultures prepared from GLT-1 null mice; experiment: Chronic motor neurodegeneration model in cultures prepared from GLT-1 null mice; assay type: cell-based; conditions: not shown
[5] = test system: GLT1; experiment: GLT1 expression in spinal cords of chronically treated G93A mice; assay type: in vivo
[6] = test system: G93A SOD1 mice; experiment: In vivo neuroprotection in the G93A SOD1 mouse
From the text: Numerous studies have documented a contributory role for excess glutamate in this mouse model—and role for modulating glutamate receptors or transporters in neuroprotective strategies. Guo H., et al. Hum Mol. Genet. 2003; 12:2519-2532. Modest over expression—by a transgenic approach—can alter disease onset and/or survival.

[7] = test system: primary cortical mixed neuronal-glial cell cultures; assay type: cell-based
Protocol: In Vitro Model of Ischemia—Oxygen glucose deprivation (FIG. 7A) The in vitro model of oxygen glucose deprivation (OGD) is a well known and well accepted model of acute neural injury. In our in vitro model of ischemia, one hour of oxygen glucose deprivation (OGD) is lethal to cultured neurons, with toxicity known to involve excess glutamate. However, when these cultures are preconditioned 24 hours prior to the lethal condition with transient OGD (5 minutes), there is a dramatic and robust resistance of neurons to cell death.
Method. Primary cortical mixed neuronal-glial cell cultures are prepared from gestation day 14-16 CD1 mice. The preparation of these cultures from mouse fetal cortex is well-described. Experiments are performed at days in vitro 13-15. In the experimental condition, cultures are subjected to oxygen glucose deprivation (OGD), an in-vitro model of ischemia. Cortical cells are either subjected to control treatment (media, modified Earle's balanced salt solution including glucose and bubbled with 5% CO2 95% O2, is changed alongside treatment groups, but no OGD is performed), or 5 minutes (sublethal) of OGD (using modified Earle's balanced salt solution which is devoid of glucose and bubbled with 10% H2, 85% N2, and […]). Anaerobic conditions are achieved using an anaerobic chamber at 37° C. OGD is terminated by exchange of media back to oxygenated growing medium. Twenty-four hours following the above, cortical cells are subjected either to no treatment, or one hour of OGD. Neuronal survival is determined by computer-assisted cell counting after staining with the fluorescent vital dyes propidium iodide (as an indicator of neuronal death) and Hoechst 33342 (as an indicator of total number of neurons) and is presented as percent of cell death. Glial nuclei fluoresce at a lower intensity and are gated out. […] Following 1 hour OGD, cells are returned to growing medium without drugs.

[8] = test system: large ventral horn motor neurons in organotypic spinal cord cultures; experiment: In vitro model of chronic motor neurodegeneration (THA) in organotypic spinal cord cultures; assay type: cell-based, rat; conditions: THA 100 μM, 4 weeks, drug 0 to 100 μM, FIG. 7B
Protocol: In vitro model of chronic motor neurodegeneration (FIG. 7B). A model of chronic neurodegeneration was used, based on the blockade of glutamate transport in spinal cord organotypic cultures, with the non specific inhibitor threo-hytdroyxaspartate (THA) or TBOA. Chronic incubation of cultures with THA (or TBOA) leads to chronic increase in extra cellular glutamate and subsequent slow death of motor neurons (over 4 weeks).
To determine if drug induced GLT1 promoter activation, and the subsequent over expression of GLT1 protein could be neuroprotective, we used the organotypic spinal cord paradigm. Organotypic spinal cord cultures were prepared from lumbar spinal cords of 8-day-old rat pups, as described previously. […] No drugs were added for the first 7 days following culture preparation. THA was then added to experimental cultures at a concentration of 100 μM, which produces death of motor neurons within 3 to 4 weeks. […] After 4 weeks, cultures were fixed, and immuostained for neurofilament (SMI-32, Sternberger) to quantify large ventral horn motor neurons (a well established method to follow motor neuron survival in this system).

[9] = 200 mg/kg ip from approximately 12 weeks of age
[10] = started at 70 days of age, two weeks of therapy, vs saline

With `CCC(C)(C)C(=O)C(=O)N1CCC[C@H]1C(=O)OCCCc1cccnc1` [GPI-1046] the EAAT2 expression [1] was “large increase”.

In the case of `CO/N=C(\C(=O)N[C@@H]1C(=O)N2C(C(=O)O)=C(CSc3nc(=O)c(=O)[nH]n3C)CS[C@H]12)c1csc(N)n1` [ceftriaxone sodium], the “maximum average plasma level” value [2] is listed as 82 to 257 µg/mL and the “maximum CSF level in inflamed meninges” value [3] is listed as 1.3 to 44 µg/mL.

With `CO/N=C(\C(=O)N[C@@H]1C(=O)N2C(C(=O)O)=C(CSc3nc(=O)c(=O)[nH]n3C)CS[C@H]12)c1csc(N)n1` [ceftriaxone] the “neuroprotection in GLT-1 null cultures” value [4] was “cannot be seen”, the “endogenous GLT1 expression in spinal cords” value [5] was “increase endogenous GLT1 expression significantly” and the “age by which strength preservation was lost” value [6, 9] was no more than 18 weeks. The “persistence of strength effect” value [6, 9] was 4 weeks, the “time after treatment at which strength effect was observed” value [6, 9] was no more than 7 days and the “loss of muscle strength (grip strength)” value ([6]; 200 mg/kg ip from approximately 12 weeks of age, FIG. 7C) was “significantly delayed”. The “increase of over all survival” value ([6]; 200 mg/kg ip from approximately 12 weeks of age, FIG. 7D) was 7 to 10 days, the “survival, earlier administration” value ([6]; same dose started at 42 days of age) was “survival was also increased” and the “hypercellular-associated gliosis and inflammation” value [6, 10] was “reduction”. The “motor neuron loss in vivo” value [6, 10] was “significant prevention”, the “percentage of neuronal cell death” value ([7]; 1 μM added 48 hours prior to 1 hour OGD, 50% without drug) was 20% and the “neuroprotection, acute administration” value ([7]; acute administration, 1 hour OGD) was “not protective”. The “increase of GLT1 protein and function” value ([1]; concentration used in the THA neuroprotection study) was “at least 3 fold”, the EC50 ([1]; follow-up dose response analysis, FIG. 2F) was 3.5 µM and the “motor neuron loss / neuroprotection” value [8] was “prevented motor neurons loss in a dose dependent manner”.

With `CO/N=C(\C(=O)N[C@@H]1C(=O)N2C(C(=O)O)=C(COC(N)=O)CS[C@H]12)c1ccco1` [cefuroxime] the “neuroprotection, pretreatment” value ([7]; compared with ceftriaxone, 1 hour OGD) was “Comparable neuroprotection”.

For `CCCC(=O)Nc1ncnc2c1ncn2[C@@H]1O[C@@H]2COP(=O)(O)O[C@H]2[C@H]1OC(=O)CCC` [dbcAMP, dibutyryl cyclic AMP], the EAAT2 expression [1] was “large increase”.

In the case of `CN[C@H](CC(C)C)C(=O)N[C@H]1C(=O)N[C@@H](CC(N)=O)C(=O)N[C@H]2C(=O)N[C@H]3C(=O)N[C@H](C(=O)N[C@H](C(=O)O)c4cc(O)cc(O)c4-c4cc3ccc4O)[C@H](O)c3ccc(c(Cl)c3)Oc3cc2cc(c3O[C@@H]2O[C@H](CO)[C@@H](O)[C@H](O)[C@H]2O[C@H]2C[C@](C)(N)[C@H](O)[C@H](C)O2)Oc2ccc(cc2Cl)[C@H]1O` [vancomycin], the GLT1 levels [1] is reported as “did not alter”.

For penicillin, the “active in increasing EAAT2 in the first screen” value ([1]; first screen, 10-100 μM) was “active”.

B1: GDNF: positive control for transporter synthesis (protein, UniProt P39905 78-211, looked up)
Glial cell line-derived …: SPDKQMAVLPRRERNRQAAAANPENSRGKGRRGQRGKNRGCVLTAIHLNVTDLGLGYETKEELIFRYCSGSCDAAETTYDKILKNLSRNRRLVSDKVGQACCRPIAFDDDLSFLDDNLVYHILRKHSAKRCGCI
For B1, the EAAT2 expression [1] was “large increase”.
